Measurements as given in ChEMBL document CHEMBL1201862, “PubChem BioAssay data set” (2004).
Values joined by “and” are separate entries in the source; they are usually repeats but may differ in a detail not shown here. Equal values may be shown once.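 In this assay, cells in 96-well plates receive the compound at five concentrations for 48 hours. Endpoints are linearly interpolated between the surrounding concentrations. GI50: concentration for 50% inhibition of growth.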 Active and inactive are the calls of the source. Rule as the data show it: active = GI50 up to about 1.1 µM and inactive = higher. Numbered stars: 1 amine (or outer) side, 2 acyl side, 3 side chain; on linkers, the order of the positions; unused ones are H or OH. Bridge positions count the residues as written; N and C are the ends. Square brackets hold non-standard residues; d marks the D form. Peptide text beside a SMILES is read from it. X58 = COc1c(N[*:1])cccc1C(=O)O[C@H](C(=O)[C@H](C)C(=O)[*:2])C(C)C; X57 = CC(C)C[C@H](C(=O)[*:2])C(C)C(=O)C1CCCN1[*:1]; NMeY = CN[C@@H](Cc1ccc(O)cc1)C(=O)O; Lac = C[C@H](O)C(=O)O

Experiments:
Experiment in all cases: growth of human tumour cells (NCI), 48 h
[1] = tested on: A498
[2] = tested on: A549
[3] = tested on: DU-145
[4] = tested on: HCT-15
[5] = tested on: KM12
[6] = tested on: MCF7
[7] = tested on: OVCAR-3
[8] = tested on: OVCAR-4
[9] = tested on: OVCAR-8
[10] = tested on: PC-3
[11] = tested on: RPMI-8226
[12] = tested on: SK-MEL-28
[13] = tested on: SK-MEL-2
[14] = tested on: SW-620
[15] = tested on: UACC-257
[16] = tested on: UO-31
[17] = tested on: COLO 205
[18] = tested on: HOP-92
[19] = tested on: SK-OV-3
[20] = tested on: SNB-75

SMILES | GI50 [1] | GI50 [2] | GI50 [3] | GI50 [4] | GI50 [5] | GI50 [6] | GI50 [7] | GI50 [8] | GI50 [9] | GI50 [10] | GI50 [11] | GI50 [12] | GI50 [13] | GI50 [14] | GI50 [15] | GI50 [16] | GI50 [17] | GI50 [18] | GI50 [19] | GI50 [20]
CC(=O)OCC1OC(n2c(C)c(C)cc(C#N)c2=S)C(OC(C)=O)C(OC(C)=O)C1OC(C)=O (stereo not given) | > 100 µM (inactive) | > 100 µM (inactive) | > 100 µM (inactive) | > 100 µM | > 100 µM (inactive) | > 100 µM (inactive) | > 100 µM (inactive) | > 100 µM (inactive) | > 100 µM (inactive) | > 100 µM (inactive) | > 100 µM (inactive) | > 100 µM (inactive) | > 100 µM (inactive) and 72.1 µM (inactive) | > 100 µM (inactive) | > 100 µM (inactive) | > 100 µM (inactive) | – | – | – | –
N#C/C(=C\c1ccc(F)cc1)c1nc2ccccc2c(=O)[nH]1 | – | > 100 µM (inactive) | > 100 µM (inactive) | > 100 µM | 3.91 µM (inactive) | > 100 µM (inactive) | – | > 100 µM (inactive) | > 100 µM (inactive) | > 100 µM (inactive) | > 100 µM (inactive) | > 100 µM (inactive) | > 100 µM (inactive) | > 100 µM (inactive) | > 100 µM (inactive) | > 100 µM (inactive) | > 100 µM (inactive) | 82.2 µM (inactive) | > 100 µM (inactive) | 25.9 µM (inactive)
O=c1[nH]nc(-c2ccccc2)n1/N=C\CC/C=N\n1c(-c2ccccc2)n[nH]c1=O | – | > 100 µM (inactive) | > 59.2 µM (inactive) | 21.4 µM | 34.8 µM (inactive) | 26.7 µM (inactive) | 20.7 µM (inactive) | 52.4 µM (inactive) | 30.1 µM (inactive) | 28.1 µM (inactive) | 25.3 µM (inactive) | 23 µM (inactive) | 20.2 µM (inactive) | 32.2 µM (inactive) | > 82.2 µM (inactive) | > 67.6 µM (inactive) | 55 µM (inactive) | 25.5 µM (inactive) | 28.6 µM (inactive) | > 69.3 µM (inactive)
NC(=O)c1nnc2cc(F)c(F)cc2c1N | 41.1 µM (inactive) | 90.2 µM (inactive) | 74.3 µM (inactive) | > 100 µM | > 100 µM (inactive) | 37.9 µM (inactive) | > 100 µM (inactive) | > 100 µM (inactive) | 37.3 µM (inactive) | 95.1 µM (inactive) | > 100 µM (inactive) | – | 15 µM (inactive) | > 100 µM (inactive) | > 100 µM (inactive) | 22.1 µM (inactive) | > 100 µM (inactive) | – | 25.5 µM (inactive) | 16.7 µM (inactive)
CCOC(=O)c1c(-c2ccccc2)c(OC)cn1C | > 10 µM (inactive) | > 10 µM (inactive) | > 10 µM (inactive) | > 10 µM | > 10 µM (inactive) | > 10 µM (inactive) | > 10 µM (inactive) | > 10 µM (inactive) | > 10 µM (inactive) | > 10 µM (inactive) | > 10 µM (inactive) | > 10 µM (inactive) | > 10 µM (inactive) | > 10 µM (inactive) | > 10 µM (inactive) | – | > 10 µM (inactive) | – | > 10 µM (inactive) | > 10 µM (inactive)
Cc1ccc(S(=O)(=O)N2CCN3C(=O)c4ccccc4C32c2ccc(F)cc2)cc1 (stereo not given) | 16.2 µM (inactive) | 51.4 µM (inactive) | 78.7 µM (inactive) | 80.9 µM | 43.7 µM (inactive) | 43.4 µM (inactive) | > 100 µM (inactive) | > 100 µM (inactive) | > 100 µM (inactive) | 32 µM (inactive) | 23.8 µM (inactive) | 71 µM (inactive) | 55.6 µM (inactive) | 87.9 µM (inactive) | 56 µM (inactive) | 44.5 µM (inactive) | 34.9 µM (inactive) | – | > 100 µM (inactive) | 72.1 µM (inactive)
O=C(O)Cc1cccc2c(=O)c3cccc([N+](=O)[O-])c3oc12 | > 100 µM (inactive) | > 100 µM (inactive) | > 100 µM (inactive) | > 100 µM | > 100 µM (inactive) | > 100 µM (inactive) | > 100 µM (inactive) | > 100 µM (inactive) | > 100 µM (inactive) | > 100 µM (inactive) | > 100 µM (inactive) | > 100 µM (inactive) | > 100 µM (inactive) | > 100 µM (inactive) | > 100 µM (inactive) | > 100 µM (inactive) | > 100 µM (inactive) | – | > 100 µM (inactive) | > 100 µM (inactive)
Oc1ccc2c3c1OC1c4[nH]ncc4C[C@H]4[C@@H](C2)N(CC2CC2)CC[C@]314 (stereo not given in full) | – | > 100 µM (inactive) | > 100 µM (inactive) | > 100 µM | > 100 µM (inactive) | > 100 µM (inactive) | > 100 µM (inactive) | > 100 µM (inactive) | > 100 µM (inactive) | > 100 µM (inactive) | > 100 µM (inactive) | > 100 µM (inactive) | > 100 µM (inactive) | – | > 100 µM (inactive) | > 100 µM (inactive) | > 100 µM (inactive) | > 100 µM (inactive) | > 100 µM (inactive) | 78.5 µM (inactive)
COC(=O)[C@]1(c2cc3ccccc3[nH]2)CC2CN(C(=O)OCc3ccccc3)C1C=C2OC (stereo not given in full) | – | 31.5 µM (inactive) | 35.5 µM (inactive) | 34.8 µM | 29 µM (inactive) | 25.6 µM (inactive) | 24 µM (inactive) | 24.9 µM (inactive) | 43.4 µM (inactive) | 26.7 µM (inactive) | 26.5 µM (inactive) | 38 µM (inactive) | 17.5 µM (inactive) | 41.5 µM (inactive) | 23 µM (inactive) | – | 19 µM (inactive) | 32.5 µM (inactive) | 36.9 µM (inactive) | 23 µM (inactive)
COc1ccc(C[C@H]2C(=O)O[C@H](C)[C@H](NC(=O)[C@@H](CC(C)C)C(C)C(=O)C3CCCN3C(=O)[C@H](C)O)C(=O)Nc3cccc(c3OC)C(=O)O[C@@H](C(C)C)C(=O)[C@H](C)C(=O)N[C@@H](CC(C)C)C(=O)N3CCC[C@H]3C(=O)N2C)cc1 (stereo not given in full) (H-[Lac][X57]T[X58]LP[NMeY](Me); ester 3-C) | – | 6.75 µM (inactive) | > 12.5 µM (inactive) | > 12.5 µM | > 12.5 µM (inactive) | > 12.5 µM (inactive) | 7.38 µM (inactive) | > 12.5 µM (inactive) | > 12.5 µM (inactive) | 3.85 µM (inactive) | 6.53 µM (inactive) | > 12.5 µM (inactive) | > 12.5 µM (inactive) | 9.29 µM (inactive) | > 12.5 µM (inactive) | > 12.5 µM (inactive) | 9.29 µM (inactive) | > 12.5 µM (inactive) | > 12.5 µM (inactive) | 2.81 µM (inactive)
Cn1ccc2c(c1=O)C(=O)OC2(C)C [CERPEGIN] | > 100 µM (inactive) | > 100 µM (inactive) | > 100 µM (inactive) | > 100 µM | > 100 µM (inactive) | > 100 µM (inactive) | > 100 µM (inactive) | > 100 µM (inactive) | > 100 µM (inactive) | > 100 µM (inactive) | > 100 µM (inactive) | > 100 µM (inactive) | – | > 100 µM (inactive) | > 100 µM (inactive) | 59.2 µM (inactive) | > 100 µM (inactive) | – | > 100 µM (inactive) | > 100 µM (inactive)
